Laboratory results: ChEMBL document CHEMBL5715956, “Selective Targeting of Bromodomains of the Bromodomain-PHD Fingers Family Impairs Osteoclast Differentiation” (ACS Chem Biol, 2017)

Assays:
[1] = target: KV channel (voltage-gated potassium channel family) (Homo sapiens, UniProt O43525+O43526+O95259+P16389+P17658+P22001+P22459+P22460+P48547+P51787+P56696+Q03721+Q09470+Q12809+Q14003+Q14721+Q16322+Q6PIU1+Q8NCM2+Q8TAE7+Q8TDN1+Q8TDN2+Q92953+Q96KK3+Q96L42+Q96PR1+Q96RP8+Q9BQ31+Q9H252+Q9H3M0+Q9NR82+Q9NS40+Q9NSA2+Q9NZV8+Q9UIX4+Q9UJ96+Q9UK17+Q9ULD8+Q9ULS6+Q9UQ05); experiment: Inhibition of KV channel (unknown origin) at 10 uM relative to control; type: protein assay
[2] = target: Beta-2 adrenergic receptor (Homo sapiens) (UniProt P07550); experiment: Binding affinity to Beta2 (unknown origin) assessed as specific binding at 10 uM relative to control
Beta-2 adrenergic receptor (Homo sapiens), sequence (P07550 whole entry, looked up): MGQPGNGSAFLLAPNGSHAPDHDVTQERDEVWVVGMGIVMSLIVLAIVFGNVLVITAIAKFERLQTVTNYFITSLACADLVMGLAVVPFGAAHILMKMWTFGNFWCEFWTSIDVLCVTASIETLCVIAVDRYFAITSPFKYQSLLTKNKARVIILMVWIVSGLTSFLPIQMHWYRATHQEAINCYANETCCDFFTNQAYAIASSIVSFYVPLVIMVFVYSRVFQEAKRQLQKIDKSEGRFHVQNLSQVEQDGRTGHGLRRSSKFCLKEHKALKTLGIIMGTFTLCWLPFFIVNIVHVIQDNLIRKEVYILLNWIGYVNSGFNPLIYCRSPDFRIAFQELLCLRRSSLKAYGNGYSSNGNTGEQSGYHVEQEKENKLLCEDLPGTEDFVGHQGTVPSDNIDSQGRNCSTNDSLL

[3] = target: Transcription initiation factor TFIID subunit 1 (Homo sapiens) (UniProt P21675); conditions: dose 10.0 µM
Transcription initiation factor TFIID subunit 1 (Homo sapiens), sequence (P21675 whole entry): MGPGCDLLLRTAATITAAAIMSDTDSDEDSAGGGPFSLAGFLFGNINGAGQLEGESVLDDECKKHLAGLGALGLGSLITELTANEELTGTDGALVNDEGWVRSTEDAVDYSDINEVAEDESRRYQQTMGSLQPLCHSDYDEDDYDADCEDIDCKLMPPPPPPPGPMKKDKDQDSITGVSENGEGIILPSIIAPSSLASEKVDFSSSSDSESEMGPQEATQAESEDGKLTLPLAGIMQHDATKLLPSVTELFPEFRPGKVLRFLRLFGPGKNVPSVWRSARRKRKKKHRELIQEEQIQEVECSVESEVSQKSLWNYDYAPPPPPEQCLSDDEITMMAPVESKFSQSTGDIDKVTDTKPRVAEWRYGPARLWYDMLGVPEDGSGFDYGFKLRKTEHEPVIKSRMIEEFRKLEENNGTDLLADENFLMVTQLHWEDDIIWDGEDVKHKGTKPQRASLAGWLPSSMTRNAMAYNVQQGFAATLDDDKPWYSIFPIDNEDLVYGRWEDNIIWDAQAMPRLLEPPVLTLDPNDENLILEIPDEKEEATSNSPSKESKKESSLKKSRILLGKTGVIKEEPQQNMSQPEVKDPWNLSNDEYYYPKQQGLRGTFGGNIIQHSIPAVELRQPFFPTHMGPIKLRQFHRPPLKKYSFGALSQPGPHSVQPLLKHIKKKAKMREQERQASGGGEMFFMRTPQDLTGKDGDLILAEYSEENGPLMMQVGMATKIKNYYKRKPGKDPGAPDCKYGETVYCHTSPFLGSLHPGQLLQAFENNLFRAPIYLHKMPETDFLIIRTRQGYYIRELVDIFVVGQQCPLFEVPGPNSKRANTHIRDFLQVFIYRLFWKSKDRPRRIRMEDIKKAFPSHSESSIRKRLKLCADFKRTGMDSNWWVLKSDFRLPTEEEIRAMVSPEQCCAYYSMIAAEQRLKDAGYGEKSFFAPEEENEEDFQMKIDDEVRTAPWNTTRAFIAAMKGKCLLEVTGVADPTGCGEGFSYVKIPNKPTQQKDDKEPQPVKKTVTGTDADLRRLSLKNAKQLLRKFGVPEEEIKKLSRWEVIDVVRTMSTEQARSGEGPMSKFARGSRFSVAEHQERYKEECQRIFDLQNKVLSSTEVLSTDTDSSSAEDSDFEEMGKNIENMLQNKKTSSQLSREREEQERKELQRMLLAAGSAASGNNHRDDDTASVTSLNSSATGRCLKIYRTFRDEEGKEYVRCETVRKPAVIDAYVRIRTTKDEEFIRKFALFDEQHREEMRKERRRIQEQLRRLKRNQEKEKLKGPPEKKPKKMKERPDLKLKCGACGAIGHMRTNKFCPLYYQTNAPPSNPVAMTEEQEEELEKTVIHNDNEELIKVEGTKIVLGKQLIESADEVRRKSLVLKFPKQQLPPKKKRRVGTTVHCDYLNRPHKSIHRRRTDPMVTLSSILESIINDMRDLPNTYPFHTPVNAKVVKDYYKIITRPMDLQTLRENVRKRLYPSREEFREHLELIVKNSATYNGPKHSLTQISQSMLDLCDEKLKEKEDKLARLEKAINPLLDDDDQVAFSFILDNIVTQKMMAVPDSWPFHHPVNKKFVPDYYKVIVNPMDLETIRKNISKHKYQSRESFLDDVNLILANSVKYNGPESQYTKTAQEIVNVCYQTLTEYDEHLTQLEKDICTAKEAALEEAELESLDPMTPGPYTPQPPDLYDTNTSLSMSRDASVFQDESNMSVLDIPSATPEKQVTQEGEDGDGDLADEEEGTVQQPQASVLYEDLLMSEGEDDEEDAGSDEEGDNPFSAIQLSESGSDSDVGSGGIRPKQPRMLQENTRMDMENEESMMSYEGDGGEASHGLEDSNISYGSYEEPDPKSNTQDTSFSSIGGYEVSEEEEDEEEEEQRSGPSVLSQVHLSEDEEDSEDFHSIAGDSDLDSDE

[4] = target: T1, Bromodomain and PHD finger-containing protein 3 (Homo sapiens) (UniProt Q9ULD4); experiment: Binding affinity to BRPF3 (unknown origin) assessed as change in entropy at 12 uM by Isothermal titration calorimetry
T1 sequence (whole entry): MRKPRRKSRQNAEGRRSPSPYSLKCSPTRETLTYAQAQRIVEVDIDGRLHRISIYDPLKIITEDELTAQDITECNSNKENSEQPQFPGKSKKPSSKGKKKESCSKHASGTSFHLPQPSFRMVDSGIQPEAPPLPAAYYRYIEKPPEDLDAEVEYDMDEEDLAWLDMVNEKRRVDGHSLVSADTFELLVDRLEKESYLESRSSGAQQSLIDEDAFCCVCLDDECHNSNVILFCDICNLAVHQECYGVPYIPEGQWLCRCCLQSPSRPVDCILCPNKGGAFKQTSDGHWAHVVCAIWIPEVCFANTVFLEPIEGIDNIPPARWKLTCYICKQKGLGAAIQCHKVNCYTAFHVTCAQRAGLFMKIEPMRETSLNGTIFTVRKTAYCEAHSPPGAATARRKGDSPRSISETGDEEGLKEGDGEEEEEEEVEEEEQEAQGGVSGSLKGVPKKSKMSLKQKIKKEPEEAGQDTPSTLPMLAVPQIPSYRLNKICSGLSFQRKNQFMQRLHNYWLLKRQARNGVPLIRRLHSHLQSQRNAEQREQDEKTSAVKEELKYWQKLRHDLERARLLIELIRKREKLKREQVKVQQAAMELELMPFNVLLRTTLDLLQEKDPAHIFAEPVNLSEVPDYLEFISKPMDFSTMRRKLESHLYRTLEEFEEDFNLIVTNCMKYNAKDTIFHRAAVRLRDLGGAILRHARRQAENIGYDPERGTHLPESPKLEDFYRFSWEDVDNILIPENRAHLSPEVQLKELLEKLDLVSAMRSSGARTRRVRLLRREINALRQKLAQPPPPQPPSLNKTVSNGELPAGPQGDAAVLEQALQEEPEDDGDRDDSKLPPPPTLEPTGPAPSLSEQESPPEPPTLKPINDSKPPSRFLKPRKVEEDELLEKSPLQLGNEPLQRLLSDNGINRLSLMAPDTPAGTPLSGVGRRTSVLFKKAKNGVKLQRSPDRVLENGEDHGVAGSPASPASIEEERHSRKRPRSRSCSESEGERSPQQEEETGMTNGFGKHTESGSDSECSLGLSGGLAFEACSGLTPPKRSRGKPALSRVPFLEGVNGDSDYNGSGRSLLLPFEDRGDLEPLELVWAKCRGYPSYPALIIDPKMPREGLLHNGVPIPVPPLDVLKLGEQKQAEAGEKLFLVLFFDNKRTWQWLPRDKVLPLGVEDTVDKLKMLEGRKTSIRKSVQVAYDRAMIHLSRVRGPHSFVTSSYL

[5] = target: Transcription initiation factor TFIID subunit 1-like (Homo sapiens) (UniProt Q8IZX4); conditions: dose 10.0 µM
Transcription initiation factor TFIID subunit 1-like (Homo sapiens), sequence (Q8IZX4 whole entry): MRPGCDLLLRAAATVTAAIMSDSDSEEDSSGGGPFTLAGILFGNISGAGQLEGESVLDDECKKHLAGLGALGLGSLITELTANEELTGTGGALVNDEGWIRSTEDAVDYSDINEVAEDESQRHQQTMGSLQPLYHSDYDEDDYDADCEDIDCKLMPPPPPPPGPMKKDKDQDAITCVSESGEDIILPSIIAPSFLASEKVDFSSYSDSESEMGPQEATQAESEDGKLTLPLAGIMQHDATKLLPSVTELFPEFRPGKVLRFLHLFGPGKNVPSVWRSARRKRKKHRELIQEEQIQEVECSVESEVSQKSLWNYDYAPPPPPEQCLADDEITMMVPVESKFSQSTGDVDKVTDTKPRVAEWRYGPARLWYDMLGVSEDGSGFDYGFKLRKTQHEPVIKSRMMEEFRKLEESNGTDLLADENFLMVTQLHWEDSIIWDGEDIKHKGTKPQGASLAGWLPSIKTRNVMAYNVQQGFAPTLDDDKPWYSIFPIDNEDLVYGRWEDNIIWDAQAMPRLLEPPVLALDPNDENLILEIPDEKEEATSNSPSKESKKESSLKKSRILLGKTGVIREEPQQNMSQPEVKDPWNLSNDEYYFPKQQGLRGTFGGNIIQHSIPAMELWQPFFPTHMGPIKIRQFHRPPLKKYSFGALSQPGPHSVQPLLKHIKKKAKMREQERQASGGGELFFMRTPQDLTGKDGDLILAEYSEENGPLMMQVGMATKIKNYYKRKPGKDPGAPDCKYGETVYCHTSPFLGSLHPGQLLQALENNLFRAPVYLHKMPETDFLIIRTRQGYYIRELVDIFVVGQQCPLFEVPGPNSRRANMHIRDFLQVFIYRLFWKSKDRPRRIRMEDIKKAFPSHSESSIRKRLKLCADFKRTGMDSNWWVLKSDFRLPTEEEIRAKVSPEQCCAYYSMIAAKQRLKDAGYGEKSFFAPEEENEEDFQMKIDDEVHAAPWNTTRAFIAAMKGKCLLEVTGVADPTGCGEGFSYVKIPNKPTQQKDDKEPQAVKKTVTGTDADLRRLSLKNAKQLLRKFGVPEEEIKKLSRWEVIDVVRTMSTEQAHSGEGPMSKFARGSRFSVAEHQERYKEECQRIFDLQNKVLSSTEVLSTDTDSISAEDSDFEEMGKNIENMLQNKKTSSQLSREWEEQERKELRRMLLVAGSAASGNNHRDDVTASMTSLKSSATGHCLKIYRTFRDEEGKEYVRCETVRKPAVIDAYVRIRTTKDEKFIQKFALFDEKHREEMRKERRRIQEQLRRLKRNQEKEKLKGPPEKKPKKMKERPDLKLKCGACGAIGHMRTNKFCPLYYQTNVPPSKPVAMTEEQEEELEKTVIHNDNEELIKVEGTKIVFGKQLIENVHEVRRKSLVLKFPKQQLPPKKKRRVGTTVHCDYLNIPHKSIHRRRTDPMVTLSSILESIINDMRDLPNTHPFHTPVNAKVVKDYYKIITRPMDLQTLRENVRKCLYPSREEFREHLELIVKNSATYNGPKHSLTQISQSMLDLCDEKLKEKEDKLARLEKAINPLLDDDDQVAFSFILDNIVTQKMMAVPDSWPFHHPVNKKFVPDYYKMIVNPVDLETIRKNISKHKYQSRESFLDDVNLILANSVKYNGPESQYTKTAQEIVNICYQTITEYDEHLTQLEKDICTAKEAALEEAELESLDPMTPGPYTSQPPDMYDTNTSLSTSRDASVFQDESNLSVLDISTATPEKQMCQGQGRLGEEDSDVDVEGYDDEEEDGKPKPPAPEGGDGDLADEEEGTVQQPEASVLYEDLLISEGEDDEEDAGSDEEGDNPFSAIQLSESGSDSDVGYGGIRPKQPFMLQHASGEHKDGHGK

[6] = target: Histone acetyltransferase KAT2B (Homo sapiens) (UniProt Q92831); conditions: dose 10.0 µM
[7] = target: Bromodomain-containing protein 3 (Homo sapiens) (UniProt Q15059); conditions: dose 10.0 µM
Bromodomain-containing protein 3 (Homo sapiens), sequence (Q15059 2-726 limits assumed): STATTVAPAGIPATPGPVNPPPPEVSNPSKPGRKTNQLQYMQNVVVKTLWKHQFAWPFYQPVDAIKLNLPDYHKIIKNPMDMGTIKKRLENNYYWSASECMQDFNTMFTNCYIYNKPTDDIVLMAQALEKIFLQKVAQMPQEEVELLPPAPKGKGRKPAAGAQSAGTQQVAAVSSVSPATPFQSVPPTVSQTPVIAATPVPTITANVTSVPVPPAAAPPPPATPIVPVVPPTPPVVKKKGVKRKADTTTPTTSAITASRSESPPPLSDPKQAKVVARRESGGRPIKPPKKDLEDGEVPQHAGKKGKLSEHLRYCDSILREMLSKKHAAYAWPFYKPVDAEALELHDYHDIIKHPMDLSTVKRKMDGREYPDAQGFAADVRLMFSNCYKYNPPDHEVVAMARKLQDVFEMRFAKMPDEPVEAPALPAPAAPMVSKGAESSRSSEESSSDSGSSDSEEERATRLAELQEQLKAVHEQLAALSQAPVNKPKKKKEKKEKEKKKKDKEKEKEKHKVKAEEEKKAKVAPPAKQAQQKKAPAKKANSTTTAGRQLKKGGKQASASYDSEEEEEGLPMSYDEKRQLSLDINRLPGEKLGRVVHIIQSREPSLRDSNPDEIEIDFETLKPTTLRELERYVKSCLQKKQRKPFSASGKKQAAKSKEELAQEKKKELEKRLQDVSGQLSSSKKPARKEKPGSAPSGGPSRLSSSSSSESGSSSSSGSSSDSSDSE

[8] = target: Bromodomain and WD repeat-containing protein 3 (Homo sapiens) (UniProt Q6RI45); conditions: dose 10.0 µM
[9] = target: CREB-binding protein (Homo sapiens) (UniProt Q92793); conditions: dose 10.0 µM
[10] = target: T2, Bromodomain-containing protein 1 (Homo sapiens) (UniProt O95696); conditions: dose 10.0 µM
T2 sequence (whole entry): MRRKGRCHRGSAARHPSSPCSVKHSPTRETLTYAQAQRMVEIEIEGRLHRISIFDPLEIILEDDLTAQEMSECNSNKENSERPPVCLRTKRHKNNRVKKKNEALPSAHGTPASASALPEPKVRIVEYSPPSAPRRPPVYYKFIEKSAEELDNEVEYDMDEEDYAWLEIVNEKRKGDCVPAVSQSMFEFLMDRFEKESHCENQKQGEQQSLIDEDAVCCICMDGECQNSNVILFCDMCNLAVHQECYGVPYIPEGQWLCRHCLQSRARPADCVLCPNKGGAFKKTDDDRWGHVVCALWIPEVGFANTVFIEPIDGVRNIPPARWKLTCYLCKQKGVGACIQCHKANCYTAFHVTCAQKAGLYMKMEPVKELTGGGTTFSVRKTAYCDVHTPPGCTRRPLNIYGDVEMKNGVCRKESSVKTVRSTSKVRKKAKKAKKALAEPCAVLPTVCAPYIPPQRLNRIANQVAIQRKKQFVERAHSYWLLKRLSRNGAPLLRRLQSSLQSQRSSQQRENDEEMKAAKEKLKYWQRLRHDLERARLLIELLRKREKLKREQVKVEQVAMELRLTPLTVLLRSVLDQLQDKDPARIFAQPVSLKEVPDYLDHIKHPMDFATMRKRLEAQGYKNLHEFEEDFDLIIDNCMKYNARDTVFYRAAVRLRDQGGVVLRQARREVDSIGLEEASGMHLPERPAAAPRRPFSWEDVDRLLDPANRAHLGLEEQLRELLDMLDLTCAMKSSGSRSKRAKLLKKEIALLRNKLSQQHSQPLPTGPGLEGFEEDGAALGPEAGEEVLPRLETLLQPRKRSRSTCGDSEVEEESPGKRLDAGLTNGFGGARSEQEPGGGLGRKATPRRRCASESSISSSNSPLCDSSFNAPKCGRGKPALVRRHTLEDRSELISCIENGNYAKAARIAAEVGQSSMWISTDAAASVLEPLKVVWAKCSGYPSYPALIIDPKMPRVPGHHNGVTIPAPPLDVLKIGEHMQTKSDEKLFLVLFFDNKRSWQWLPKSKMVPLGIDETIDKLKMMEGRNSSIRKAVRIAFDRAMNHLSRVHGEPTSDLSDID

[11] = organism: Homo sapiens; conditions: dose 10.0 µM

inhibition at 10 µM [1]: -18%
Activity [2]: 93.6%
ΔTm [3]: 0.2 °C
deltaS [4]: 0.002 kcal/mol/K
ΔTm [5]: 0.3 °C
ΔTm [6]: 0.3 °C
ΔTm [7]: 1.4 °C
ΔTm [8]: 1.3 °C
ΔTm [9]: 0.4 °C
ΔTm [10]: 3.1 °C
ΔTm [11]: 3.3 °C
Compound: COc1cc2c(cc1NS(=O)(=O)c1ccc(Br)cc1C)n(C)c(=O)n2C
